From patent publication US11464866B2, “Pharmaceutical composition containing macromolecular drug” (BIODYNAMIC RESEARCH FOUNDATION, priority 2016, dated 2022)

Test system: S-180 mice (tumor model)
Details: mouse, in vivo, 1 day
Description: Method: In 1 ml of saline (0.01 M phosphate, 0.15 M NaCl, pH 7.4) were dissolved 10 mg of each sample (10 mg/ml) and the predetermined amount of each test reagent shown in Table 2. Then, 0.1 ml of each obtained solution and 0.1 ml of an aqueous solution (10 mg/ml) of Evans blue were intravenously administered to S-180 mice (tumor model) The tumor size of the mice was a diameter of 5 to 7 mm. The next day, each mouse was dissected and solid tumors were taken out therefrom. Evans blue was extracted by a conventional method and the leaked Evans blue was quantified by absorption of 560 nm (see Non-Patent Document 1).

**Q.** How did the “enhanced effect (tumor delivery)” value turn out when `O=[N+]([O-])OCC(CO[N+](=O)[O-])O[N+](=O)[O-]` [nitroglycerin] was run?
**A.** Its value is no less than 30%.
